Test results taken from patent US20090176846A1, “N-hydroxy-4- {5- [4- (5-isopropyl-2-methyl-1, 3-thiazol-4-yl) phenoxy] pentoxy} benzamidine 2 methanesulfonic acid salt” (priority 2005, published 2009).
Values after ≈ are worked out from the molar mass of the structure shown. Structures can show the parent of a compound that is named as a salt. Where two headings read alike, the source gives them in different places.

Columns and labels:
[1] = Pharmacokinetic evaluation in SD rats; assay type: in vivo; conditions: 50 mg/kg; for Cmax (maximum blood concentration): n=4
Description: The 2 methanesulfonic acid salt, prepared in Example 1, and the 1 methanesulfonic acid salt, prepared in Comparative Example 1, of N-Hydroxy-4-{5-[4-(5-isopropyl-2-methyl-1,3-thiazol-4-yl)phenoxy]pentoxy} benzamidine, and the N-Hydroxy-4-{5-[4-(5-isopropyl-2-methyl-1,3-thiazol-4-yl)phenoxy]pentoxy} benzamidine, prepared in Reference Preparation Example 1, were individually administered to SD rats in a dosage of 50 mg/kg. At given time points (0, 0.5, 1, 1.5, 2, 3, 5 and 8 hrs), rats were mildly anesthetized with diethyl ether, and blood samples were collected from the orbital venous plexus and stored at −20° C. until concentration analysis. The plasma samples were mixed with an equal volume of an internal standard substance solution (prepared by dissolving betamethasone in acetonitrile to give a final concentration of 30 μg/ml) with agitation for. 1 min, and was centrifuged at 12,000 rpm for 10 min. Active components of the plasma samples were analyzed by HPLC (Model: Waters Module 1). From the obtained data, pharmacokinetic parameters (maximum blood concentration (Cmax) and area under the blood concentration-time curve (AUC) were calculated by noncompartment analysis using the WinNonlin program (Version 1.0, Scientific Consulting Inc., USA). The results are given in Table 5, below.

[2] = Solubility in various solvents at room temperature; assay type: physicochemical
Excerpt: The 2 methanesulfonic acid salt, prepared in Example 1, and the 1 methanesulfonic acid salt, prepared in Comparative Example 1, of N-Hydroxy-4-{5-[4-(5-isopropyl-2-methyl-1,3-thiazol-4-yl)phenoxy]pentoxy} benzamidine, and the N-Hydroxy-4-{5-[4-(5-isopropyl-2-methyl-1,3-thiazol-4-yl)phenoxy]pentoxy} benzamidine, prepared in Reference Preparation Example 1, were examined for solubility (μg/mL) in various solvents at room temperature.

[3] = Stability under accelerated conditions (40±2° C./75±5% RH), HPLC content; assay type: physicochemical; conditions: for Content (%): 40±2° C./75±5% RH, cap-opened vial, HPLC area percentage
Description: The 2 methanesulfonic acid salt of N-Hydroxy-4-{5-[4-(5-isopropyl-2-methyl-1,3-thiazol-4-yl)phenoxy]pentoxy} benzamidine, prepared in Example 1, was placed into a transparent glass vial, and stored at a cap-opened state under accelerated conditions (40±2° C./75±5% RH) for a period of two weeks. Thereafter, the sample was analyzed by HPLC (Waters Module 1). The analysis was performed using a column packed with an octadecyl-silylated silica gel (Shiseido CAPCELL PAK C18, UG 120, Particle size 5 μm) under conditions: UV detection: 256 nm, injection volume: 10 μl, mobile-phase flow rate: 1.5 mL/min. The amount of the compound was calculated as an area percentage.

bone fractures = conditions: rats, compared to control not treated; cited from earlier work
[4] = test system: allergic inflammatory diseases (asthma); conditions: asthmatic mice, cited from earlier work
[5] = distilled water, room temperature
[6] = dose-dependent, compared to control group

Which “Cmax (maximum blood concentration)” value [1] does the source give for `CS(=O)(=O)O.Cc1nc(-c2ccc(OCCCCCOc3ccc(C(=N)NO)cc3)cc2)c(C(C)C)s1` [1 methanesulfonic acid salt, N-Hydroxy-4-{5-[4-(5-isopropyl-2-methyl-1,3-thiazol-4-yl)phenoxy]pentoxy} benzamidine 1 methanesulfonic acid salt] here?
Its value is 1400 ± 110 ng/mL.

What about the AUC (area under the blood concentration-time curve) ([1]; n=4, 0-8 hrs) of the same compound?
Its AUC (area under the blood concentration-time curve) is 7010 ± 600 ng·h/mL.

What about the solubility [2, 5] of the same compound?
The solubility was 414.34 µg/mL.

What about the solubility ([2]; pH 1.2, room temperature) of the same compound?
Its solubility is 1,092.98 μg/mL.

What about the solubility ([2]; pH 4.0, room temperature) of the same compound?
Its solubility is 0.99 µg/mL.

Which results are given for `Cc1nc(-c2ccc(OCCCCCOc3ccc(C(=N)NO)cc3)cc2)c(C(C)C)s1` [2 methanesulfonic acid salt, N-Hydroxy-4-{5-[4-(5-isopropyl-2-methyl-1,3-thiazol-4-yl)phenoxy]pentoxy} benzamidine 2 methansulfonic acid salt]?
change in content in accelerated test ([3]; accelerated test at 40° C., two weeks): no change; Content (%) ([3]; after 1 week): 99.87%; Content (%) ([3]; after 2 weeks): 99.86%; Content (%) ([3]; after 2 days): 99.86%; Content (%) ([3]; early stage): 99.85%; Cmax (maximum blood concentration) [1]: 1670 ± 320 ng/mL; AUC (area under the blood concentration-time curve) ([1]; n=4, 0-8 hrs): 10300 ± 800 ng·h/mL; bioavailability ([1]; SD, rat, plasma, read-out: bioavailability relative to the 1 methanesulfonic acid salt): > 46%; solubility [2, 5]: 3,535.33 μg/mL; solubility ([2]; pH 1.2, room temperature): 1,686.71 μg/mL; solubility fold higher than the 1 methanesulfonic acid salt ([2]; pH 4.0): about 3 fold; solubility ([2]; solvent of pH 4.0 (composition not named), pH 4, aqueous buffer, pH 4.0, room temperature, read-out: solubility): 3 µg/mL

For `Cc1nc(-c2ccc(OCCCCCOc3ccc(C(=N)NO)cc3)cc2)c(C(C)C)s1` [Free base, N-Hydroxy-4-{5-[4-(5-isopropyl-2-methyl-1,3-thiazol-4-yl)phenoxy]pentoxy} benzamidine], which AUC ([1]; SD, rat, plasma, n=4, 0-8 hrs, read-out: AUC (area under the blood concentration-time curve)) is on record?
The AUC was 5310 ± 490 ng·h/mL.

And the Cmax ([1]; SD, rat, plasma, n=4, read-out: Cmax (maximum blood concentration))?
The Cmax was 1090 ± 170 ng/mL.

And the solubility [2, 5]?
The solubility was 3.48 µg/mL (≈ 7.67 µM).

And the solubility ([2]; solvent of pH 1.2 (composition not named), pH 1.2, simulated gastric fluid, pH 1.2, room temperature, read-out: solubility)?
The solubility was 951 µg/mL (≈ 2100 µM).

And the “bone mineral content of callus” value (bone fractures)?
Its value is “significantly enhanced”.

What about the bone tissue density (bone fractures) of the same compound?
Its bone tissue density is “significantly increased”.

And the callus volume (bone fractures)?
The callus volume was “significantly reduced”.

And the “content of connective and soft tissues in the callus tissue” value (bone fractures)?
Its value is “significantly reduced”.

What about the “mechanical strength of callus” value (bone fractures) of the same compound?
Its value is “significantly enhanced”.

What about the alveolar area ([4]; compared to control group) of the same compound?
The alveolar area was “significantly increased”.

And the number of eosinophils [4, 6]?
Its number of eosinophils is “significantly decreased”.

What about the “number of eosinophils in bronchoalveolar lavage fluid” value [4, 6] of the same compound?
The value was “significantly decreased”.

What about the “total number of leukocytes” value [4, 6] of the same compound?
The value was “significantly decreased”.

And the “increase in lung weight” value ([4]; oral administration for 18 days, compared to control given sterile distilled water)?
Its value is “suppressed”.
